In US20060188938A1, “Compounds for inhibiting beta-amyloid production and methods of identifying the compounds” (priority 2005, published 2006) one finds melting point data, which are given here for 37 compounds.

For orientation: melting point means the temperature, or range, at which the solid turns liquid.

The compound `CC1=C(C(=O)OC(C)(C)C)C(c2ccccc2I)C(C(=O)OC(C)(C)C)=C(C)N1` [Example 28, Di-tert-butyl 1,4-dihydro-4-(2-iodophenyl)-2.6-dimethylpyridine-3,5-dicarboxylate] gave a melting point of 184 to 185 °C.

As for `CCOC(=O)C1=C(C)NC(C)=C(C(=O)OCC)C1c1ccc(Cl)cc1` [Example 22, Diethyl 4-(4-chlorophenyl)-1,4-dihydro-2,6-dimethylpyridine-3,5-dicarboxylate], the melting point lay in the range of 151 to 152 °C.

`CCOC(=O)C1=C(C)NC(C)=C(C(=O)OC)C1c1ccccc1Cl` (stereo not shown) [Example 56, 3-Ethyl 5-methyl 4-(2-chlorophenyl)-1,4-dihydro-2,6-dimethylpyridine-3,5-dicarboxylate] registered a melting point of 125 to 127 °C.

In turn, `CCOC(=O)C1=C(C)NC(C)=C(C(=O)OCC)C1c1ccc(Br)cc1F` [Example 43, Diethyl 4-(4-bromo-2-fluorophenyl)-1,4-dihydro-2,6-dimethylpyridine-3,5-dicarboxylate] returned a melting point of 154 to 155 °C.

For the compound `COC(=O)C1=C(C)NC(C)=C(C(C)=O)C1c1ccccc1Cl` (stereo not shown) [Example 57, Methyl 5-acetyl-4-(2-chlorophenyl)-1,4-dihydro-2,6-dimethylpyridine-3-carboxylate], the melting point fell in the range of 183 to 184 °C.

Compound `CCOC(=O)C1=C(C)NC(C)=C(C(=O)OCC)C1c1c(Cl)cccc1Cl` [Example 36, Diethyl 4-(2,6-dichlorophenyl)-1,4-dihydro-2,6-dimethylpyridine-3,5-dicarboxylate] gave a melting point of 134 to 135 °C.

On to `CCOC(=O)C1=C(C)NC(C)=C(C(=O)OCC)C1c1cc(Br)ccc1F` [Example 47, Diethyl 4-(5-bromo-2-fluorophenyl)-1,4-dihydro-2,6-dimethylpyridine-3,5-dicarboxylate], for which the melting point fell in the range of 118 to 119 °C.

In the case of `C=CCOC(=O)C1=C(C)NC(C)=C(C(=O)OCC=C)C1c1ccccc1Cl` [Example 16, Diallyl 4-(2-chlorophenyl)-1,4-dihydro-2,6-dimethylpyridine-3,5-dicarboxylate], the melting point lay within 98 to 99 °C.

Compound `CC1=C(C(=O)OC(C)(C)C)C(c2ccc(F)cc2)C(C(=O)OC(C)(C)C)=C(C)N1` [Example 52, Di-tert-butyl 4-(4-fluorophenyl)-1,4-dihydro-2,6-dimethylpyridine-3,5-dicarboxylate] came in with a melting point of 149 to 150 °C.

`CC1=C(C(=O)OC(C)(C)C)C(c2cccc(Cl)c2Cl)C(C(=O)OC(C)(C)C)=C(C)N1` [Example 32, Di-tert-butyl 4-(2,3-dichlorophenyl)-1,4-dihydro-2,6-dimethylpyridine-3,5-dicarboxylate] registered a melting point of 144 to 145 °C.

In the case of `CCOC(=O)C1=C(C)NC(C)=C(C(=O)OCC)C1c1cc(Cl)ccc1Cl` [Example 34, Diethyl 4-(2,5-dichlorophenyl)-1,4-dihydro-2,6-dimethylpyridine-3,5-dicarboxylate], the melting point lay within 166.5 to 167.5 °C.

`CC1=C(C(=O)OC(C)(C)C)C(c2ccccc2Cl)C(C(=O)OC(C)(C)C)=C(C)N1` [Example 9, Di-tert-butyl 4-(2-chlorophenyl)-1,4-dihydro-2,6-dimethylpyridine-3,5-dicarboxylate] came in with a melting point of 194 to 196 °C.

The compound `CCOC(=O)C1=C(C)NC(C)=C(C(=O)OCC)C1c1ccccc1F` [Example 12, Diethyl 4-(2-fluorophenyl)-1,4-dihydro-2,6-dimethylpyridine-3,5-dicarboxylate] had a melting point of 151 to 152.5 °C.

Regarding `CCOC(=O)C1=C(C)NC(C)=C(C(=O)OCC)C1c1cccc(Br)c1` [Example 24, Diethyl 4-(3-bromophenyl)-1,4-dihydro-2,6-dimethylpyridine-3,5-dicarboxylate], the melting point lay within 125 to 126 °C.

In the case of `CC1=C(C(=O)OC(C)(C)C)C(c2ccc(F)c(Br)c2)C(C(=O)OC(C)(C)C)=C(C)N1` [Example 42, Di-tert-butyl 4-(3-bromo-4-fluorophenyl)-1,4-dihydro-2,6-dimethylpyridine-3,5-dicarboxylate], the melting point was in the range of 171 to 172 °C.

With `COC(=O)C1=C(C)NC(C)=C(C(=O)OC)C1c1ccccc1Br` [Example 19, Dimethyl 4-(2-bromophenyl)-1,4-dihydro-2,6-dimethylpyridine-3,5-dicarboxylate], the melting point lay in the range of 164 to 165 °C.

For `CCOC(=O)C1=C(C)NC(C)=C(C(=O)OCC)C1c1ccccc1Br` [Example 11, Diethyl 4-(2-bromophenyl)-1,4-dihydro-2,6-dimethylpyridine-3,5-dicarboxylate], the melting point was in the range of 144 to 145 °C.

For the compound `COC(=O)C1=C(C)NC(C)=C(C(C)=O)C1c1ccccc1Br` (stereo not shown) [Example 59, Methyl 5-acetyl-4-(2-bromophenyl)-1,4-dihydro-2,6-dimethylpyridine-3-carboxylate], the melting point lay in the range of 146 to 148 °C.

Consider `CCOC(=O)C1=C(C)NC(C)=C(C(=O)OCC)C1c1cccc(F)c1F` [Example 38, Diethyl 4-(2,3-difluorophenyl)-1,4-dihydro-2,6-dimethylpyridine-3,5-dicarboxylate], for which the melting point lay within 161 to 162 °C.

As for `CCOC(=O)C1=C(C)NC(C)=C(C(=O)OCC)C1c1cccc(Cl)c1Cl` [Example 31, Diethyl 4-(2,3-dichlorophenyl)-1,4-dihydro-2,6-dimethylpyridine-3,5-dicarboxylate], the melting point fell in the range of 125 to 126 °C.

As for `CCOC(=O)C1=C(C)NC(C)=C(C(=O)OCC)C1c1ccccc1Cl` [Example 6, Diethyl 4-(2-chlorophenyl)-1,4-dihydro-2,6-dimethylpyridine-3,5-dicarboxylate], the melting point was 120 to 121 °C.

In turn, `COCC1=C(C(=O)OC)C(c2ccccc2Cl)C(C(=O)OC)=C(COC)N1` [Example 17, Dimethyl 4-(2-chlorophenyl)-1,4-dihydro-2,6-bis(methoxymethyl)pyridine-3,5-dicarboxylate] showed a melting point of 137 to 138 °C.

On to `CC1=C(C(=O)OC(C)(C)C)C(c2cc(Br)ccc2F)C(C(=O)OC(C)(C)C)=C(C)N1` [Example 48, Di-tert-butyl 4-(5-bromo-2-fluorophenyl)-1,4-dihydro-2,6-dimethylpyridine-3,5-dicarboxylate], for which the melting point lay in the range of 173 to 174 °C.

Compound `COCCOC(=O)C1=C(C)NC(C)=C(C(=O)OCCOC)C1c1ccc(Br)cc1` [Example 46, Bis(2-methoxyethyl) 4-(4-bromophenyl)-1,4-dihydro-2,6-dimethylpyridine-3,5-dicarboxylate] gave a melting point of 116 to 117 °C.

As for `COCC1=C(C(=O)OC)C(c2ccc(Br)cc2)C(C(=O)OC)=C(COC)N1` [Example 53, Dimethyl 4-(4-bromophenyl)-1,4-dihydro-2,6-bis(methoxymethyl)pyridine-3,5-dicarboxylate], the melting point was in the range of 162 to 163 °C.

Compound `CC1=C(C(=O)OC(C)(C)C)C(c2ccc(Br)cc2F)C(C(=O)OC(C)(C)C)=C(C)N1` [Example 44, Di-tert-butyl 4-(4-bromo-2-fluorophenyl)-1,4-dihydro-2,6-dimethylpyridine-3,5-dicarboxylate] yielded a melting point of 187 to 188 °C.

`CC1=C(C(=O)OC(C)(C)C)C(c2ccccc2[N+](=O)[O-])C(C(=O)OC(C)(C)C)=C(C)N1` [Example 15, Di-tert-butyl 1,4-dihydro-2,6-dimethyl-4-(2-nitrophenyl)pyridine-3,5-dicarboxylate] displayed a melting point of 159 to 161 °C.

The compound `CC1=C(C(=O)OC(C)(C)C)C(c2ccc(C)cc2C)C(C(=O)OC(C)(C)C)=C(C)N1` [Example 55, Di-tert-butyl 1,4-dihydro-2,6-dimethyl-4-(2,4-dimethylphenyl)pyridine-3,5-dicarboxylate] had a melting point of 197 to 198 °C.

As to `CC1=C(C(=O)OC(C)(C)C)C(c2ccccc2Br)C(C(=O)OC(C)(C)C)=C(C)N1` [Example 14, Di-tert-butyl 4-(2-bromophenyl)-1,4-dihydro-2,6-dimethylpyridine-3,5-dicarboxylate], the melting point fell in the range of 162 to 164 °C.

With `CCOC(=O)C1=C(C)NC(C)=C(C(=O)OC)C1c1ccccc1Br` (stereo not shown) [Example 58, 3-Ethyl 5-methyl 4-(2-bromophenyl)-1,4-dihydro-2,6-dimethylpyridine-3,5-dicarboxylate], the melting point lay within 134.5 to 135.5 °C.

In turn, `CC(=O)C1=C(C)NC(C)=C(C(C)=O)C1c1ccccc1Cl` [Example 7, 4-(2-Chlorophenyl)-1,4-dihydro-2,6-dimethylpyridine-3,5-di(2-ethanone)] had a melting point of 196 to 197 °C.

For the compound `CC1=C(C(=O)OC(C)(C)C)C(c2cccc(F)c2)C(C(=O)OC(C)(C)C)=C(C)N1` [Example 50, Di-tert-butyl 4-(3-fluorophenyl)-1,4-dihydro-2,6-dimethylpyridine-3,5-dicarboxylate], the melting point was in the range of 178 to 179 °C.

`COC(=O)C1=C(C)NC(C)=C(C(=O)OC)C1c1ccccc1Cl` [Example 8, Dimethyl 4-(2-chlorophenyl)-1,4-dihydro-2,6-dimethylpyridine-3,5-dicarboxylate]: the melting point lay within 188 to 189 °C.

Take `CC1=C(C(=O)OC(C)(C)C)C(c2cccc(Br)c2)C(C(=O)OC(C)(C)C)=C(C)N1` [Example 25, Di-tert-butyl 4-(3-bromophenyl)-1,4-dihydro-2,6-dimethylpyridine-3,5-dicarboxylate]: the melting point fell in the range of 195 to 196 °C.

`CC1=C(C(=O)OC(C)(C)C)C(c2ccc(Br)cc2)C(C(=O)OC(C)(C)C)=C(C)N1` [Example 27, Di-tert-butyl 4-(4-bromophenyl)-1,4-dihydro-2.6-dimethylpyridine-3,5-dicarboxylate] yielded a melting point of 206 to 207 °C.

The compound `CCOC(=O)C1=C(C)NC(C)=C(C(=O)OCC)C1c1ccccc1I` [Example 18, Diethyl 1,4-dihydro-4-(2-iodophenyl)-2,6-dimethylpyridine-3,5-dicarboxylate] showed a melting point of 173 to 174.5 °C.

Regarding `CC1=C(C(=O)OC(C)(C)C)C(c2cc(Cl)ccc2Cl)C(C(=O)OC(C)(C)C)=C(C)N1` [Example 35, Di-tert-butyl 4-(2,5-dichlorophenyl)-1,4-dihydro-2,6-dimethylpyridine-3,5-dicarboxylate], the melting point fell in the range of 181 to 183 °C.
